± gives the expanded uncertainty stated by the source.
assay: relative permittivity at zero frequency (dimensionless); details: 298.15 K; 101.33 kPa; Liquid; Coaxial cylinder capacitor

Structure (SMILES)	relative permittivity at zero frequency
CCn1cc[n+](C)c1.O=S(=O)([O-])C(F)(F)F [1-ethyl-3-methylimidazolium trifluoromethanesulfonate]	16.5 ± 1
CCCCn1c(C)c(C)[n+](C)c1C.O=S(=O)([N-]S(=O)(=O)C(F)(F)F)C(F)(F)F	15 ± 1.6
CCCCS(=O)(=O)[O-].CCn1cc[n+](C)c1 [1-ethyl-3-methylimidazolium butylsulfonate]	30 ± 3
C[n+]1ccn(CCO)c1.F[B-](F)(F)F [1-(2-hydroxyethyl)-3-methylimidazolium tetrafluoroborate]	23.3 ± 2
CCCCn1cc[n+](C)c1.F[P-](F)(F)(F)(F)F [1-butyl-3-methylimidazolium hexafluorophosphate]	14 ± 1.4
CCCCn1cc[n+](C)c1C.F[P-](F)(F)(F)(F)F [1-butyl-2,3-dimethylimidazolium hexafluorophosphate]	9.4 ± 2
CCCCn1cc[n+](C)c1.N#C[S-] [1-butyl-3-methylimidazolium thiocyanate]	13.7 ± 1.6
CCCCn1cc[n+](C)c1.O=S(=O)([O-])C(F)(F)F [1-butyl-3-methylimidazolium trifluoromethanesulfonate]	12.9 ± 1
CC(=O)[O-].[NH3+]CCO [2-hydroxyethylammonium acetate]	58.3 ± 5
CCOP(=O)([O-])OCC.CCn1cc[n+](C)c1 [1-ethyl-3-methylimidazolium diethyl phosphate]	16.9 ± 1.6
CCCC[n+]1c(C)c(C)n(C)c1C.F[B-](F)(F)F	12 ± 1.2
CC(=O)O.OCCN(CCO)CCO [triethanolammonium acetate]	31 ± 3
CCCCn1cc[n+](C)c1C.O=S(=O)([N-]S(=O)(=O)C(F)(F)F)C(F)(F)F	14 ± 1.6
CCCCn1cc[n+](C)c1.F[B-](F)(F)F [1-butyl-3-methylimidazolium tetrafluoroborate]	13.9 ± 0.8
CCCCn1cc[n+](C)c1C.F[B-](F)(F)F [1-butyl-2,3-dimethylimidazolium tetrafluoroborate]	13.3 ± 1.2
CC(O)C(=O)O.OCCN(CCO)CCO [triethanolamine lactate]	59.7 ± 6
CCn1cc[n+](C)c1.O=S(=O)([O-])O [1-ethyl-3-methylimidazolium hydrogen sulfate]	18.4 ± 2
COP(=O)([O-])OC.Cn1cc[n+](C)c1 [1,3-dimethylimidazolium dimethylphosphate]	29.6 ± 3
CCCC[N+]1(C)CCCC1.N#CN=C=[N-] [1-butyl-1-methylpyrrolidinium dicyanamide]	18 ± 1.6
CCn1cc[n+](C)c1C.O=S(=O)([N-]S(=O)(=O)C(F)(F)F)C(F)(F)F	12.8 ± 0.8
Br.Cn1ccnc1 [1-methylimidazolium bromide]	16.6 ± 2.4
CCCCC[N+](CC)(CC)CC.O=S(=O)([N-]S(=O)(=O)C(F)(F)F)C(F)(F)F [triethylpentylammonium bis(trifluoromethylsulfonyl)imide]	12.5 ± 1.4
CCOS(=O)(=O)[O-].CCn1cc[n+](C)c1 [1-ethyl-3-methylimidazolium ethyl sulfate]	35 ± 3
CC(O)C(=O)[O-].[NH3+]CCO (stereo unspecified) [2-hydroxyethylammonium lactate]	85.6 ± 8
Cl.Cn1ccnc1 [1-methylimidazolium chloride]	13.8 ± 2
O=[N+]([O-])[O-].[NH3+]CCO [ethanolammonium nitrate]	60.9 ± 4
